Assay results as given in ChEMBL document CHEMBL5620403, “Design, synthesis, activity and molecular dynamics studies of 1,3,4-thiadiazole derivatives as selective allosteric inhibitors of SHP2 for the treatment of cancer” (Eur J Med Chem, 2023).
Each block holds one molecule with its values, some of them ahead of it.

Key:
[1] = molecular target: T1, Tyrosine-protein phosphatase non-receptor type 11 (Homo sapiens, UniProt Q06124); assay: Inhibition of full length wild type recombinant human IRS-1 peptide activated SHP2 (1 to 525 residues) using DIPMUP as substrate preincubated for 30 mins followed by substrate addition and measured after 30 mins by fluorescence based analysis
T1 sequence (Q06124 whole entry): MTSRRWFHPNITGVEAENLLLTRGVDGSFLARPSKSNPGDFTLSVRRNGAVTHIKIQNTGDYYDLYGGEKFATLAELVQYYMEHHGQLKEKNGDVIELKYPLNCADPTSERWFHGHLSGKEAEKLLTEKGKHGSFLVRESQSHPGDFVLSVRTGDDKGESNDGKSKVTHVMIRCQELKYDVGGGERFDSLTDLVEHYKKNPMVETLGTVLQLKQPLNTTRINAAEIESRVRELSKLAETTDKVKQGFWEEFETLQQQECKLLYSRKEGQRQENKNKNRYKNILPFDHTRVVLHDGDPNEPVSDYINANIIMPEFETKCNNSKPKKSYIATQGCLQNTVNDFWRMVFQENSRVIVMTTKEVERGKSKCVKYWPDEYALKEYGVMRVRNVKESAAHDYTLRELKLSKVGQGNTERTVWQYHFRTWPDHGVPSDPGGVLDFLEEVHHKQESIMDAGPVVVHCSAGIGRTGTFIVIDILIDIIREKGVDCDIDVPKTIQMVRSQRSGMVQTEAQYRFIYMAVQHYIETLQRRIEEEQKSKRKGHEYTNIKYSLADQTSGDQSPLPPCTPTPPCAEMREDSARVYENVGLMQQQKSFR

MV4-11 [2] = assay: Antiproliferative activity against human MV4-11 cells assessed as inhibition of cell growth measured after 72 hrs by CCK8 method; type: functional, cell-based; conditions: MV4-11, 72 h
[3] = molecular target: Tyrosine-protein phosphatase non-receptor type 6 (Homo sapiens, UniProt P29350); assay: Inhibition of full length recombinant human SHP1 (1 to 570 residues) using DIPMUP as substrate preincubated for 30 mins followed by substrate addition and measured after 30 mins by fluorescence based analysis
Tyrosine-protein phosphatase non-receptor type 6, sequence (P29350 whole entry, the tested form may be a part): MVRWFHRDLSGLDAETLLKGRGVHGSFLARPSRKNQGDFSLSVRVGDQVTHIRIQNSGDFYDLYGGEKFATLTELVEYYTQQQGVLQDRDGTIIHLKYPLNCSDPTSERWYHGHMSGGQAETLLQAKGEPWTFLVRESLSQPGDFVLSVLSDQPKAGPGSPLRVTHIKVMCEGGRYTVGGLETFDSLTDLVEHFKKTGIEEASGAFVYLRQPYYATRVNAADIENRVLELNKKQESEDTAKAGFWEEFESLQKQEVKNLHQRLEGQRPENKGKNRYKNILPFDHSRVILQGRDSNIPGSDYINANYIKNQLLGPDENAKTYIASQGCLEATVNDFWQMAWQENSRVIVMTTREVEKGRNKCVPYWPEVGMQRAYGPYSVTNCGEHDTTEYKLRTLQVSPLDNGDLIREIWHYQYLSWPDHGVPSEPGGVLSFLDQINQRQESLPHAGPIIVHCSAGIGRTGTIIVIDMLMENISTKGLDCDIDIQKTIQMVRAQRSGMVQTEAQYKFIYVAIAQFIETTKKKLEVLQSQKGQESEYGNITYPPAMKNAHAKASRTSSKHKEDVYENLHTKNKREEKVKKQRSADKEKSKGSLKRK

MDA-MB-468 = assay: Antiproliferative activity against human MDA-MB-468 cells assessed as inhibition of cell growth measured after 72 hrs by CCK8 method; type: functional, cell-based; conditions: MDA-MB-468, 72 h
NCI-H358 = assay: Antiproliferative activity against human NCI-H358 cells assessed as inhibition of cell growth measured after 72 hrs by CCK8 method; type: functional, cell-based; conditions: NCI-H358, 72 h
A549 = assay: Antiproliferative activity against human A549 cells assessed as inhibition of cell growth measured after 72 hrs by CCK8 method; type: functional, cell-based; conditions: A549, 72 h
[4] = molecular target: T1, Tyrosine-protein phosphatase non-receptor type 11; assay: Inhibition of recombinant human SHP2 PTPase activity (219 to 525 residues) using DIPMUP as substrate preincubated for 30 mins followed by substrate addition and measured after 30 mins by fluorescence based analysis
BEAS-2B = assay: Antiproliferative against human BEAS-2B cells assessed as inhibition of cell growth measured after 72 hrs by CCK8 method; type: toxicity, cell-based
[5] = molecular target: T1, Tyrosine-protein phosphatase non-receptor type 11; assay: Inhibition of full length wild type recombinant human SHP2 (1 to 525 residues) using DIPMUP as substrate preincubated for 30 mins followed by substrate addition and measured after 30 mins by fluorescence based analysis
MV4-11 [6] = assay: Induction of apoptosis in human MV4-11 cells assessed as early apoptotic cells at 5 uM measured after 4 hrs by Annexin V-FITC/7-AAD staining based flow cytometric analysis (reference value: 5.97%); type: functional
MV4-11 [7] = assay: Induction of apoptosis in human MV4-11 cells assessed as late apoptotic cells at 2.5 uM measured after 4 hrs by Annexin V-FITC/7-AAD staining based flow cytometric analysis (reference value: 4.03%); type: functional
MV4-11 [8] = assay: Induction of apoptosis in human MV4-11 cells assessed as viable cells at 5 uM measured after 4 hrs by Annexin V-FITC/7-AAD staining based flow cytometric analysis (reference value: 90.1%); type: functional
MV4-11 [9] = assay: Induction of apoptosis in human MV4-11 cells assessed as early apoptotic cells at 2.5 uM measured after 4 hrs by Annexin V-FITC/7-AAD staining based flow cytometric analysis (reference value: 5.97%); type: functional
MV4-11 [10] = assay: Induction of apoptosis in human MV4-11 cells assessed as necrotic cells at 5 uM measured after 2 hrs by Annexin V-FITC/7-AAD staining based flow cytometric analysis (reference value: 0.92%); type: functional
MV4-11 [11] = assay: Induction of apoptosis in human MV4-11 cells assessed as viable cells at 5 uM measured after 2 hrs by Annexin V-FITC/7-AAD staining based flow cytometric analysis (reference value: 90.1%); type: functional
MV4-11 [12] = assay: Induction of apoptosis in human MV4-11 cells assessed as necrotic cells at 1.25 uM measured after 4 hrs by Annexin V-FITC/7-AAD staining based flow cytometric analysis (reference value: 0.86%); type: functional
MV4-11 [13] = assay: Induction of apoptosis in human MV4-11 cells assessed as early apoptotic cells at 5 uM measured after 4 hrs by Annexin V-FITC/7-AAD staining based flow cytometric analysis (reference value: 4.28%); type: functional
MV4-11 [14] = assay: Induction of apoptosis in human MV4-11 cells assessed as viable cells at 1.25 uM measured after 4 hrs by Annexin V-FITC/7-AAD staining based flow cytometric analysis (reference value: 89.1%); type: functional
MV4-11 [15] = assay: Induction of apoptosis in human MV4-11 cells assessed as late apoptotic cells at 5 uM measured after 4 hrs by Annexin V-FITC/7-AAD staining based flow cytometric analysis (reference value: 4.03%); type: functional
MV4-11 [16] = assay: Induction of apoptosis in human MV4-11 cells assessed as necrotic cells at 2.5 uM measured after 4 hrs by Annexin V-FITC/7-AAD staining based flow cytometric analysis (reference value: 0.86%); type: functional
[17] = Inhibition of full length recombinant human SHP2 E76A mutant (1 to 525 residues) using DIPMUP as substrate preincubated for 30 mins followed by substrate addition and measured after 30 mins by fluorescence based analysis
MV4-11 [18] = assay: Induction of apoptosis in human MV4-11 cells assessed as viable cells at 2.5 uM measured after 4 hrs by Annexin V-FITC/7-AAD staining based flow cytometric analysis (reference value: 89.1%); type: functional
MV4-11 [19] = assay: Induction of apoptosis in human MV4-11 cells assessed as late apoptotic cells at 5 uM measured after 1 hrs by Annexin V-FITC/7-AAD staining based flow cytometric analysis (reference value: 4.21%); type: functional
MV4-11 [20] = assay: Induction of apoptosis in human MV4-11 cells assessed as early apoptotic cells at 1.25 uM measured after 4 hrs by Annexin V-FITC/7-AAD staining based flow cytometric analysis (reference value: 5.97%); type: functional
MV4-11 [21] = assay: Induction of apoptosis in human MV4-11 cells assessed as viable cells at 5 uM measured after 1 hrs by Annexin V-FITC/7-AAD staining based flow cytometric analysis (reference value: 90.1%); type: functional
MV4-11 [22] = assay: Induction of apoptosis in human MV4-11 cells assessed as necrotic cells at 5 uM measured after 4 hrs by Annexin V-FITC/7-AAD staining based flow cytometric analysis (reference value: 0.92%); type: functional
MV4-11 [23] = assay: Induction of apoptosis in human MV4-11 cells assessed as late apoptotic cells at 5 uM measured after 4 hrs by Annexin V-FITC/7-AAD staining based flow cytometric analysis (Rvb =4.21%); type: functional
MV4-11 [24] = assay: Induction of apoptosis in human MV4-11 cells assessed as early apoptotic cells at 5 uM measured after 2 hrs by Annexin V-FITC/7-AAD staining based flow cytometric analysis (reference value: 4.28%); type: functional
MV4-11 [25] = assay: Induction of apoptosis in human MV4-11 cells assessed as necrotic cells at 5 uM measured after 1 hrs by Annexin V-FITC/7-AAD staining based flow cytometric analysis (reference value: 0.92%); type: functional
MV4-11 [26] = assay: Induction of apoptosis in human MV4-11 cells assessed as viable cells at 5 uM measured after 4 hrs by Annexin V-FITC/7-AAD staining based flow cytometric analysis (reference value: 89.1%); type: functional
MV4-11 [27] = assay: Induction of apoptosis in human MV4-11 cells assessed as early apoptotic cells at 5 uM measured after 1 hrs by Annexin V-FITC/7-AAD staining based flow cytometric analysis (reference value: 4.28%); type: functional
MV4-11 [28] = assay: Induction of apoptosis in human MV4-11 cells assessed as late apoptotic cells at 1.25 uM measured after 4 hrs by Annexin V-FITC/7-AAD staining based flow cytometric analysis (reference value: 4.03%); type: functional
MV4-11 [29] = assay: Induction of apoptosis in human MV4-11 cells assessed as late apoptotic cells at 5 uM measured after 2 hrs by Annexin V-FITC/7-AAD staining based flow cytometric analysis (reference value: 4.21%); type: functional
MV4-11 [30] = assay: Induction of apoptosis in human MV4-11 cells assessed as necrotic cells at 5 uM measured after 4 hrs by Annexin V-FITC/7-AAD staining based flow cytometric analysis (reference value: 0.86%); type: functional

IC50 [1]: 4.42 µM
Structure (SMILES): CC1(N)CCN(c2nnc(Sc3ccc(Cl)c(Cl)c3)s2)CC1

IC50 [1]: 1.12 µM
Structure (SMILES): CC1(CN)CCN(c2nnc(Sc3cccc(Cl)c3Cl)s2)CC1

IC50 [1]: 5.89 µM
Structure (SMILES): CC1(N)CCN(c2nnc(-c3cccc(Cl)c3Cl)s2)CC1

IC50 [1]: 4.51 µM
Structure (SMILES): CC1(N)CCN(c2nnc(Sc3cccc4cccnc34)s2)CC1

IC50 [1]: 5.53 µM
Structure (SMILES): NC1CCN(c2nnc(Sc3cccc(Cl)c3Cl)s2)CC1

IC50 [1]: 6.99 µM
Structure (SMILES): CC1(N)CCN(c2nnc(Sc3ccccc3F)s2)CC1

IC50 [1]: 3.82 µM
Structure (SMILES): NCC1CCN(c2nnc(Sc3cccc(Cl)c3Cl)s2)CC1

IC50 [1]: 5.43 µM
Structure (SMILES): CC1(N)CCN(c2nnc(Sc3ccc(Cl)cc3Cl)s2)CC1

IC50 [1]: 3.29 µM
Structure (SMILES): CC1(N)CCN(c2nnc(Sc3ccccc3Cl)s2)CC1

Continued, molecule first:

Structure (SMILES): COc1ccc2cc(-c3nnc(N4CCC(C)(N)CC4)s3)ccc2c1
IC50 [1]: 4.95 µM

Structure (SMILES): CC1(N)CCN(c2nnc(-c3ccc4ccccc4c3)s2)CC1
IC50 [1]: 4.35 µM

Structure (SMILES): CC1(N)CCN(c2nnc(-c3cccc4ccccc34)s2)CC1
IC50 (MV4-11 [2]): 3320 nM
IC50 [3]: > 50 µM
IC50 [1]: 4.35 µM
IC50 (MDA-MB-468): 5.42 µM
IC50 (NCI-H358): 32.9 µM
IC50 (A549): 19 µM
IC50 [4]: > 50 µM

Structure (SMILES): CC1(N)CCN(c2nnc(Sc3ccc4ccccc4c3)s2)CC1
IC50 (MV4-11 [2]): 3020 nM
IC50 [3]: > 50 µM
Activity (BEAS-2B): Toxic
IC50 [1]: 0.72 µM
IC50 (MDA-MB-468): 3.64 µM
IC50 (NCI-H358): 13.9 µM
IC50 (A549): 13.8 µM
IC50 [4]: > 50 µM
IC50 [5]: 1860 nM

Structure (SMILES): CC1(N)CCN(c2cnc(-c3cccc(Cl)c3Cl)c(N)n2)CC1
IC50 (MV4-11 [2]): 2780 nM
Activity (MV4-11 [6]): 5%
Activity (MV4-11 [7]): 5.06%
Activity (MV4-11 [8]): 87.7%
IC50 [3]: > 50 µM
Activity (MV4-11 [9]): 5.95%
Activity (MV4-11 [10]): 0.95%
Activity (MV4-11 [11]): 90%
IC50 (MDA-MB-468): 31.8 µM
Activity (MV4-11 [12]): 0.66%
Activity (MV4-11 [13]): 6.98%
Activity (MV4-11 [14]): 88.1%
IC50 (NCI-H358): > 50 µM
Activity (MV4-11 [15]): 4.89%
IC50 (A549): > 50 µM
Activity (MV4-11 [16]): 0.79%
IC50 [17]: 1430 nM
Activity (MV4-11 [18]): 88.2%
Activity (MV4-11 [19]): 4.32%
Activity (MV4-11 [20]): 4.94%
Activity (MV4-11 [21]): 90.4%
Activity (MV4-11 [22]): 0.77%
Activity (MV4-11 [23]): 4.58%
Activity (MV4-11 [24]): 4.73%
Activity (MV4-11 [25]): 1.05%
Activity (MV4-11 [26]): 89.3%
Activity (MV4-11 [27]): 4.27%
Activity (MV4-11 [28]): 4.24%
Activity (MV4-11 [29]): 4.35%
Activity (MV4-11 [30]): 0.85%

Structure (SMILES): CC1(N)CCN(c2nnc(Sc3cccc(Cl)c3Cl)s2)CC1
IC50 (MV4-11 [2]): 2740 nM
IC50 [3]: > 50 µM
Activity (BEAS-2B): Toxic
IC50 [1]: 0.97 µM
IC50 (MDA-MB-468): 2.87 µM
IC50 (NCI-H358): 8.64 µM
IC50 (A549): 7.21 µM
IC50 [4]: > 50 µM
IC50 [5]: 3690 nM
